Data taken from patent US11554048B2, “System and method for treating meibomian gland dysfunction” (The Schepens Eye Research Institute, Inc., priority 2018, dated 2023).

Test system: iHMGEC
Test: Terminal differentiation of iHMGECs under low oxygen combined with phospholipidosis-inducing drug
Type: cell-based, human
Conditions: low oxygen levels combined with drug exposure, 10 μg/ml
Text: This hypoxic effect is associated with a significant rise in the number and size of lysosomes, as well as increased DNase II activity and decreased Lamp-1 expression. These latter changes are consistent with heightened terminal differentiation and holocrine secretion.

CC[C@H]1OC(=O)[C@H](C)[C@@H](O[C@H]2C[C@@](C)(OC)[C@@H](O)[C@H](C)O2)[C@H](C)[C@@H](O[C@@H]2O[C@H](C)C[C@H](N(C)C)[C@H]2O)[C@](C)(O)C[C@@H](C)CN(C)[C@H](C)[C@@H](O)[C@]1(C)O [azithromycin]
hypoxic influence on terminal differentiation: further enhanced
